ChEMBL document CHEMBL1201862, “PubChem BioAssay data set” (2004)
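Growth conditions: 96-well plates. Treatment: test compound, 48 hours, 5 concentrations. Analysis: linear interpolation between bracketing concentrations; unreached endpoints set to highest concentration. Abbreviation: GI50, concentration required for 50% inhibition of growth.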 Activity calls are given as the source filed them. Rule as the data show it: active = GI50 up to about 1.1 µM and inactive = higher.

Experiments:
Assay in all cases: inhibition of tumour cell growth, NCI panel, 48 h
A549 = system: A549
CAKI-1 = system: CAKI-1
EKVX = system: EKVX
HCT-116 = system: HCT-116
HL-60 = system: HL-60
KM12 = system: KM12
M14 = system: M14
MOLT-4 = system: MOLT-4
Malme-3M = system: Malme-3M
NCI-H460 = system: NCI-H460
PC-3 = system: PC-3
RPMI-8226 = system: RPMI-8226
SF-268 = system: SF-268
SF-539 = system: SF-539
SNB-19 = system: SNB-19
SNB-75 = system: SNB-75
SW-620 = system: SW-620
UACC-62 = system: UACC-62
UO-31 = system: UO-31
SK-MEL-28 = system: SK-MEL-28

Row | SMILES | GI50 (A549) | GI50 (CAKI-1) | GI50 (EKVX) | GI50 (HCT-116) | GI50 (HL-60) | GI50 (KM12) | GI50 (M14) | GI50 (MOLT-4) | GI50 (Malme-3M) | GI50 (NCI-H460) | GI50 (PC-3) | GI50 (RPMI-8226) | GI50 (SF-268) | GI50 (SF-539) | GI50 (SNB-19) | GI50 (SNB-75) | GI50 (SW-620) | GI50 (UACC-62) | GI50 (UO-31) | GI50 (SK-MEL-28)
1 | Cc1ccc(S(=O)(=O)NC(=O)Nc2nnc(S(N)(=O)=O)s2)cc1 | > 100 µM (inactive) | > 100 µM (inactive) | > 100 µM (inactive) | > 100 µM (inactive) | > 100 µM (inactive) | > 100 µM (inactive) | > 100 µM (inactive) | > 100 µM (inactive) | > 100 µM (inactive) | > 100 µM (inactive) | > 100 µM (inactive) | > 100 µM (inactive) | > 100 µM (inactive) | > 100 µM (inactive) | > 100 µM (inactive) | > 100 µM (inactive) | > 100 µM (inactive) | > 100 µM (inactive) | > 100 µM (inactive) | 
2 | CN(C)c1ccc(NN=C2SC(=N\c3ccccc3)/C(=N/c3ccccc3)S2)cc1 | 66.2 µM (inactive) | 76.4 µM (inactive) | 12.8 µM (inactive) | 14.9 µM (inactive) | 2.97 µM (inactive) | 18.2 µM (inactive) |  | 47.2 µM (inactive) | 2.38 µM (inactive) | 13 µM (inactive) | > 100 µM (inactive) | > 100 µM (inactive) | > 100 µM (inactive) | 53.7 µM (inactive) | > 100 µM (inactive) | 27.3 µM (inactive) | 53 µM (inactive) | 9.38 µM (inactive) | 52.4 µM (inactive) | > 100 µM (inactive)
3 | CCN(CCCl)c1cc(CN(C)C)cc(NC(=O)C23CCC(C(=O)Nc4cc(CN(C)C)cc(N(CC)CCCl)c4)(CC2)CC3)c1 | 1.03 µM (active) | 11.1 µM (inactive) |  | 1.11 µM (active) | 0.0157 µM (active) | 1.67 µM (inactive) | 2.97 µM (inactive) | < 0.01 µM (active) | 1.71 µM (inactive) | 0.0687 µM (active) | 0.351 µM (active) | 1.35 µM (inactive) | 0.23 µM (active) | 0.443 µM (active) | 0.113 µM (active) | 1.01 µM (active) | 0.105 µM (active) | 1.14 µM (inactive) | 17.1 µM (inactive) | 1.75 µM (inactive)
4 | COc1ccc(OC)c(/N=C/c2cc(OC)c(OC)c(OC)c2)c1 | > 100 µM (inactive) | 80.5 µM (inactive) | > 52.6 µM (inactive) | > 100 µM (inactive) | 48.9 µM (inactive) | > 80 µM (inactive) | > 100 µM (inactive) | 68.9 µM (inactive) | > 100 µM (inactive) | > 100 µM (inactive) | > 100 µM (inactive) | > 44.1 µM (inactive) | > 100 µM (inactive) | > 100 µM (inactive) | > 100 µM (inactive) | > 100 µM (inactive) | > 91.2 µM (inactive) | > 100 µM (inactive) | > 100 µM (inactive) | > 89.1 µM (inactive)
5 | COC(=O)CCC(C)[C@H]1CCC2C3C(C[C@H](OC(C)=O)[C@@]21C)[C@@]1(C)CCC2(C[C@H]1C[C@H]3OC(C)=O)OOC1(CCCCC1)OO2 (stereo not given in full) | 11.3 µM (inactive) | 41.1 µM (inactive) | 4.04 µM (inactive) | 5.58 µM (inactive) | 7.26 µM (inactive) | 23.6 µM (inactive) | 15.5 µM (inactive) | 17.2 µM (inactive) | 36.4 µM (inactive) | 10.8 µM (inactive) | 5.97 µM (inactive) | 1.99 µM (inactive) | 25 µM (inactive) | 60.1 µM (inactive) | 42.2 µM (inactive) | 21.2 µM (inactive) | 33.3 µM (inactive) |  | 5.73 µM (inactive) | > 100 µM (inactive)
6 | COc1ccc(C[C@@H]2CN(C(=O)c3ccccc3)[C@H](Cc3ccc(O)cc3)CN2C(=O)c2ccccc2)cc1Br | > 100 µM (inactive) | > 100 µM (inactive) | > 100 µM (inactive) | > 100 µM (inactive) | > 100 µM (inactive) | > 100 µM (inactive) | > 100 µM (inactive) | > 100 µM (inactive) | > 100 µM (inactive) | > 100 µM (inactive) | 55.2 µM (inactive) | 82.8 µM (inactive) | > 100 µM (inactive) | > 100 µM (inactive) | > 100 µM (inactive) | > 100 µM (inactive) | > 100 µM (inactive) |  | > 100 µM (inactive) | > 100 µM (inactive)
7 | COC(=O)CC1C2(C)C3=C(C)C(c4ccoc4)CC3OC2C2OC(=O)C3(C)C=CC(=O)C1(C)C23 (stereo not given) | 2.83 µM (inactive) | 0.841 µM (active) | 1.36 µM (inactive) | 0.889 µM (active) | 0.372 µM (active) | 1.71 µM (inactive) | 1.32 µM (inactive) | 0.455 µM (active) | 1.02 µM (active) | 1.15 µM (inactive) | 1.18 µM (inactive) | 0.34 µM (active) | 2.07 µM (inactive) | 0.869 µM (active) | 2.25 µM (inactive) | 3.01 µM (inactive) | 1.33 µM (inactive) | 1.46 µM (inactive) | 1.19 µM (inactive) | 1.16 µM (inactive)
